# Columns and labels:
# Format in all cases: cell-based
# [1] = target: T1, BRAF D594G (Homo sapiens, UniProt P15056, D594G); assay: BRAF HiBiT degradation assay, C-terminal HiBiT-tagged BRAF D594G overexpressed in HCT-116 BRAF−/− cells (clone 63), Nano-Glo HiBiT Lytic assay
# T1 construct: Horizon Discovery (HCT-116 BRAF−/− cells); host or cells: HCT-116 BRAF−/− cells, clone 63, lentiviral transduction
# Summary of the method: (§1)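 Cells 3,000/well, 24 h at 37 °C; cpds 1 μM–0.01 nM, 11-pt half-log, duplicate, 0.2% DMSO. Readout: HiBiT lytic luminescence, 10 min at RT. Normalized to DMSO-treated tagged cells, with DMSO-treated wild-type HCT-116 as background. DC50 = fitted concentration at Y=50; Obs. Dmax = % degraded at maximal effect.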
# [2] = target: T2, BRAF G466V (Homo sapiens, UniProt P15056, G466V); assay: BRAF HiBiT degradation assay, C-terminal HiBiT-tagged BRAF G466V overexpressed in HCT-116 BRAF−/− cells (clone 8), Nano-Glo HiBiT Lytic assay
# T2 construct: Horizon Discovery (HCT-116 BRAF−/− cells); host or cells: HCT-116 BRAF−/− cells, clone 8, lentiviral transduction
# Summary of the method: as §1
# [3] = target: T3, BRAF G469A (Homo sapiens, UniProt P15056, G469A); assay: BRAF HiBiT degradation assay, C-terminal HiBiT-tagged BRAF G469A overexpressed in HCT-116 BRAF−/− cells (clone 34), Nano-Glo HiBiT Lytic assay
# T3 construct: Horizon Discovery (HCT-116 BRAF−/− cells); host or cells: HCT-116 BRAF−/− cells, clone 34, lentiviral transduction
# Summary of the method: as §1
# [4] = target: T4, BRAF V600E (Homo sapiens, UniProt P15056, V600E); assay: BRAF HiBiT degradation assay, C-terminal HiBiT-tagged BRAF V600E A375 cells (clone 1F10), Nano-Glo HiBiT Lytic assay; settings: for Dmax: A-375
# T4 construct: endogenous C-terminal HiBiT fusion tag on BRAF V600E allele; endogenous in cells; host or cells: A375 clone 1F10 (CRISPR-Cas9 knock-in of the HiBiT tag; parental A375 from ATCC)
# Summary of the method: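 Luminescence read-out: Nano-Glo HiBiT lytic reagent with LgBiT, 10 min at room temperature. Signal normalised to DMSO-treated tagged cells, with wildtype A375 as background. Cells are endogenously tagged BRAF V600E A375 clone 1F10. Compounds were tested from 1 μM to 0.01 nM; Dmax is observed % degraded at maximal effect.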
# [5] = BRAF D594G (Class 3), HCT-116 BRAF−/− cells, DC50 at 50% degradation
# [6] = BRAF D594G (Class 3), HCT-116 BRAF−/− cells, observed Dmax relative to DMSO control
# [7] = BRAF G466V (Class 3), HCT-116 BRAF−/− cells, DC50 at 50% degradation
# [8] = BRAF G466V (Class 3), HCT-116 BRAF−/− cells, observed Dmax relative to DMSO control
# [9] = BRAF G469A (Class 2), HCT-116 BRAF−/− cells, DC50 at 50% degradation
# [10] = BRAF G469A (Class 2), HCT-116 BRAF−/− cells, observed Dmax relative to DMSO control
# [11] = A375 (BRAF V600E, Class 1), DC50 at 50% degradation
# [12] = A375 (BRAF V600E, Class 1), observed Dmax, % protein degraded relative to DMSO control
# [13] = BRAF D594G, DC50 at 50%: fitted conc. at Y=50
# [14] = HCT-116, BRAF D594G, percentage protein degraded at maximal compound effect relative to DMSO
# [15] = BRAF G466V, DC50 at 50%: fitted conc. at Y=50
# [16] = HCT-116, BRAF G466V, percentage protein degraded at maximal compound effect relative to DMSO
# [17] = Class 2, BRAF G469A, DC50 at 50%: fitted conc. at Y=50
# [18] = HCT-116, Class 2, BRAF G469A, percentage protein degraded at maximal compound effect relative to DMSO
# [19] = A375 (BRAF V600E), DC50 at 50%: fitted conc. at Y=50
# [20] = A375 (BRAF V600E), percentage protein degraded at maximal compound effect relative to DMSO
# T2 sequence (P15056 whole entry G466V): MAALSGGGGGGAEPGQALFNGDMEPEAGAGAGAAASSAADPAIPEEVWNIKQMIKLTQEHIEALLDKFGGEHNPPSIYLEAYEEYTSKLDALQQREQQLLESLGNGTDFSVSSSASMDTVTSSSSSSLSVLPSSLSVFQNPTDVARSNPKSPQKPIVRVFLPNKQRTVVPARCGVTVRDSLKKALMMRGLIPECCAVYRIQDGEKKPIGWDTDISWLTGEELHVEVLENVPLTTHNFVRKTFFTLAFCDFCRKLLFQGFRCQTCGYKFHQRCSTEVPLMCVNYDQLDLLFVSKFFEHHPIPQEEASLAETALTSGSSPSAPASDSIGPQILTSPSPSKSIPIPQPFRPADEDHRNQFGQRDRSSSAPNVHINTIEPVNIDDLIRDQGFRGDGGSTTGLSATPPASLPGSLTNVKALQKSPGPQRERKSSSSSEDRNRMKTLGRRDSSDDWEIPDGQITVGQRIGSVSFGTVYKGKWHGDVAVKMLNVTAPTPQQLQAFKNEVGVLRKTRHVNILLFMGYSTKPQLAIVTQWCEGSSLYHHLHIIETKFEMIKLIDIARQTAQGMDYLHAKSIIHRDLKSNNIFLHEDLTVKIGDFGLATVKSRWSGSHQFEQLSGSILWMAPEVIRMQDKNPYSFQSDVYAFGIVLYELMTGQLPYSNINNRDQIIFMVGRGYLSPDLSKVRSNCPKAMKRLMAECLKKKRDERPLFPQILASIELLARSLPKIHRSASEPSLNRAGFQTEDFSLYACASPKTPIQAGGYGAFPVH
# T3 sequence (P15056 whole entry G469A): as the sequence (P15056 whole entry G466V) above, with V466G, G469A counted along it
# T1 sequence (P15056 whole entry D594G): as the sequence (P15056 whole entry G466V) above, with V466G, D594G counted along it
# T4 sequence (P15056 whole entry V600E, the tested form may be a part): as the sequence (P15056 whole entry G466V) above, with V466G, V600E counted along it
Compound,"DC50 [1, 5] [nM]","Dmax [1, 6] [%]","DC50 [2, 7] [nM]","Dmax [2, 8] [%]","DC50 [3, 9] [nM]","Dmax [3, 10] [%]","DC50 [4, 11] [nM]","Dmax [4, 12] [%]","DC50 [1, 13] [nM]","Dmax [1, 14] [%]","DC50 [2, 15] [nM]","Dmax [2, 16] [%]","DC50 [3, 17] [nM]","Dmax [3, 18] [%]","DC50 [4, 19] [nM]","Dmax [4, 20] [%]"
"O=C1CC[C@H](c2ccc(N3CCC(CN4CCN(c5ccc(-n6cc(-c7cc(Cl)cc(NS(=O)(=O)N8CC(F)C8)c7F)c(-c7ccncc7)n6)c(F)c5)CC4)CC3)cc2)C(=O)N1 [Compound 338, N-{5-chloro-3-[1-(4-{4-[(1-{4-[(3R)-2,6-dioxopiperidin-3-yl]phenyl}piperidin-4-yl)methyl]piperazin-1-yl}-2-fluorophenyl)-3-(pyridin-4-yl)-1H-pyrazol-4-yl]-2-fluorophenyl}-3-fluoroazetidine-1-sulfonamide]",< 10,30 to 70,< 10,> 70,< 10,30 to 70,< 10,> 70,–,–,–,–,–,–,–,–
"CCCS(=O)(=O)Nc1cccc(-c2nc(C(C)(C)C)sc2-c2ccnc(Nc3ccc(C4CCN(C(=O)CN5CCN(c6cc(C7CCC(=O)NC7=O)ccn6)CC5)CC4)cc3)n2)c1F (racemic) [Compound 174, Rac-N-[3-(2-tert-butyl-5-{2-[(4-{1-[2-(4-{4-[(3R)-2,6-dioxopiperidin-3-yl]pyridin-2-yl}piperazin-1-yl)acetyl]piperidin-4-yl}phenyl)amino]pyrimidin-4-yl}-1,3-thiazol-4-yl)-2-fluorophenyl]propane-1-sulfonamide]",–,–,–,–,–,–,–,–,> 500,< 30,> 500,< 30,> 500,< 30,10 to 50,> 70
"O=C1CC[C@H](c2ccc(N3CCC(CN4CCN(c5ccc(-n6cc(-c7cc(Cl)cc(NS(=O)(=O)N8CC[C@@H](F)C8)c7F)c(-c7ccncc7)n6)nc5)CC4)CC3)cc2)C(=O)N1 [Compound 294, (3R)—N-{5-chloro-3-[1-(5-{4-[(1-{4-[(3R)-2,6-dioxopiperidin-3-yl]phenyl}piperidin-4-yl)methyl]piperazin-1-yl}pyridin-2-yl)-3-(pyridin-4-yl)-1H-pyrazol-4-yl]-2-fluorophenyl}-3-fluoropyrrolidine-1-sulfonamide]",< 10,> 70,< 10,> 70,< 10,> 70,< 10,> 70,–,–,–,–,–,–,–,–
"CCCS(=O)(=O)Nc1cccc(-c2nc(-c3ccc(C4CCN(CC5CCN(c6ccc(C7CCC(=O)NC7=O)cn6)CC5)CC4)cc3)sc2-c2ccnc(N)n2)c1F (racemic) [Compound 208, Rac-N-{3-[5-(2-aminopyrimidin-4-yl)-2-(4-{1-[(1-{5-[(3R)-2,6-dioxopiperidin-3-yl]pyridin-2-yl}piperidin-4-yl)methyl]piperidin-4-yl}phenyl)-1,3-thiazol-4-yl]-2-fluorophenyl}propane-1-sulfonamide]",–,–,–,–,–,–,–,–,> 500,30 to 70,> 500,30 to 70,> 500,30 to 70,10 to 50,> 70
"O=C1CCN(c2ccc(N3CCC(CN4CCN(c5ccc(-n6cc(-c7cc(Cl)cc(NS(=O)(=O)N8CCCC8)c7F)c(-c7ccncc7)n6)c(F)c5)CC4)CC3)nc2)C(=O)N1 [Compound 370, N-[5-chloro-3-(1-{4-[4-({1-[5-(2,4-dioxo-1,3-diazinan-1-yl)pyridin-2-yl]piperidin-4-yl}methyl)piperazin-1-yl]-2-fluorophenyl}-3-(pyridin-4-yl)-1H-pyrazol-4-yl)-2-fluorophenyl]pyrrolidine-1-sulfonamide]",< 10,30 to 70,< 10,30 to 70,> 500,30 to 70,< 10,> 70,–,–,–,–,–,–,–,–

# Now from value to molecule:
"DC50 [1, 5] [nM]","Dmax [1, 6] [%]","DC50 [2, 7] [nM]","Dmax [2, 8] [%]","DC50 [3, 9] [nM]","Dmax [3, 10] [%]","DC50 [4, 11] [nM]","Dmax [4, 12] [%]","DC50 [1, 13] [nM]","Dmax [1, 14] [%]","DC50 [2, 15] [nM]","Dmax [2, 16] [%]","DC50 [3, 17] [nM]","Dmax [3, 18] [%]","DC50 [4, 19] [nM]","Dmax [4, 20] [%]",Compound
< 10,30 to 70,< 10,> 70,10 to 50,30 to 70,< 10,> 70,–,–,–,–,–,–,–,–,"O=C1CCC(c2ccc(N3CCC(CN4CCN(c5cc(F)c(-n6cc(-c7cc(Cl)cc(NS(=O)(=O)N8CCCC8)c7F)c(-c7ccncc7)n6)cc5F)CC4)CC3)nc2)C(=O)N1 (racemic) [Compound 354, Rac-N-{5-chloro-3-[1-(4-{4-[(1-{5-[(3R)-2,6-dioxopiperidin-3-yl]pyridin-2-yl}piperidin-4-yl)methyl]piperazin-1-yl}-2,5-difluorophenyl)-3-(pyridin-4-yl)-1H-pyrazol-4-yl]-2-fluorophenyl}pyrrolidine-1-sulfonamide]"
–,–,–,–,–,–,–,–,10 to 50,30 to 70,10 to 50,> 70,50 to 500,30 to 70,< 10,> 70,"CCN(C)S(=O)(=O)Nc1cccc(-c2nc(C)sc2-c2ccnc(Nc3ccc(N4CCN(CC5CCN(c6ccc([C@H]7CCC(=O)NC7=O)cn6)CC5)CC4)cn3)n2)c1F [Compound 27, (3R)-3-{6-[4-({4-[6-({4-[4-(3-{[ethyl(methyl)sulfamoyl]amino}-2-fluorophenyl)-2-methyl-1,3-thiazol-5-yl]pyrimidin-2-yl}amino)pyridin-3-yl]piperazin-1-yl}methyl)piperidin-1-yl]pyridin-3-yl}piperidine-2,6-dione]"
< 10,> 70,< 10,> 70,10 to 50,30 to 70,< 10,> 70,–,–,–,–,–,–,–,–,"O=C1CC[C@H](c2ccc(N3CCC(CN4CCN(c5ccc(-n6cc(-c7cc(Cl)cc(NS(=O)(=O)N8CCCC8)c7F)c(-c7ccncc7)n6)nc5)CC4)CC3)cc2)C(=O)N1 [Compound 286, N-{5-chloro-3-[1-(5-{4-[(1-{4-[(3R)-2,6-dioxopiperidin-3-yl]phenyl}piperidin-4-yl)methyl]piperazin-1-yl}pyridin-2-yl)-3-(pyridin-4-yl)-1H-pyrazol-4-yl]-2-fluorophenyl}pyrrolidine-1-sulfonamide]"
–,–,–,–,–,–,–,–,< 10,30 to 70,10 to 50,30 to 70,> 500,30 to 70,< 10,> 70,"CCCS(=O)(=O)Nc1cccc(-c2nc(C3CCN(C(=O)C4CCN(C(=O)C5(C)CCN(c6ccc(C7CCC(=O)NC7=O)cn6)CC5)CC4)CC3)sc2-c2ccnc(N)n2)c1F (racemic) [Compound 193, Rac-N-{3-[5-(2-aminopyrimidin-4-yl)-2-{1-[1-(1-{5-[(3R)-2,6-dioxopiperidin-3-yl]pyridin-2-yl}-4-methylpiperidine-4-carbonyl)piperidine-4-carbonyl]piperidin-4-yl}-1,3-thiazol-4-yl]-2-fluorophenyl}propane-1-sulfonamide]"
> 500,30 to 70,50 to 500,30 to 70,> 500,30 to 70,< 10,> 70,–,–,–,–,–,–,–,–,"CCCS(=O)(=O)Nc1cccc(-c2nc(C3CCN(C(=O)C4CCN(CC5CCN(c6ccc(C7CCC(=O)NC7=O)cn6)CC5)CC4)CC3)sc2-c2ccnc(N)n2)c1F (racemic) [Compound 261, Rac-N-{3-[5-(2-aminopyrimidin-4-yl)-2-(1-{1-[(1-{5-[(3R)-2,6-dioxopiperidin-3-yl]pyridin-2-yl}piperidin-4-yl)methyl]piperidine-4-carbonyl}piperidin-4-yl)-1,3-thiazol-4-yl]-2-fluorophenyl}propane-1-sulfonamide]"

# From patent US20260317324A1, “BIFUNCTIONAL COMPOUNDS FOR DEGRADING BRAF VIA UBIQUITIN PROTEOSOME PATHWAY” (Nurix Therapeutics, Inc., priority 2023, published 2026)
